Results reported in patent US6479505B1, “6-arylphenanthridines with PDE-IV inhibiting activity” (Altana Pharma AG, priority 1999, dated 2002).

tested on: not given; experiment: not given; settings: not given

| melting point | SMILES |
| --- | --- |
| 213 to 214 °C | COc1cc2c(cc1OC)[C@@H]1CCCC[C@@H]1N=C2c1ccc2[nH]nnc2c1 [Compound 4, (−)-cis-6-(1H-Benzotriazol-5-yl)-8,9-dimethoxy-1,2,3,4,4a,10b-hexahydrophenanthridine] |
| 213 to 214.5 °C | COc1cc2c(cc1OC)[C@@H]1CCCC[C@@H]1N=C2c1ccc2c(c1)C(=O)c1ccccc1C2=O [Compound 8, (−)-cis-8,9-Dimethoxy-6-(anthraquinon-2-yl)-1,2,3,4,4a,10b-hexahydrophenanthridine] |

tested on: PDE4; experiment: Inhibition of PDE4 activity (method of Bauer and Schwabe, microtiter plates); assay type: biochemical; settings: inhibitory concentration as −log IC50 (mol/l)
Description: The activity test was carried out according to the method of Bauer and Schwabe, which was adapted to microtiter plates (Naunyn-Schmiedeberg's Arch. Pharmacol. 1980, 311, 193-198). The PDE reaction takes place in the first step here. In a second step, the resulting 5′-nucleotide is cleaved by a 5′-nucloetidase of the snake venom of Crotalus atrox to the uncharged nucleoside. In the third step, the nucleoside is separated from the remaining charged substrate on ion-exchange columns. The columns are eluted directly into minivials, into which 2 ml of scintillator fluid are additionally added, for counting using 2 ml of 30 mM ammonium formate (pH 6.0).
The inhibitory values determined for the compounds according to the invention [inhibitory concentration as −log IC50 (mol/l/)] follow from the following Table A, in which the numbers of the compounds correspond to the numbers of the examples.

| SMILES | −log IC50 |
| --- | --- |
| COc1cc2c(cc1OC)[C@@H]1CCCC[C@@H]1N=C2c1ccc2c(c1)OCCO2 [Compound 3, (−)-cis-8,9-Dimethoxy-6-(2,3-dihydrobenzo[1,4]dioxin-6-yl)-1,2,3,4,4a,10b-hexahydrophenanthridine] | 7.21 |
| COc1cc2c(cc1OC)[C@@H]1CCCC[C@@H]1N=C2c1ccc2ncccc2c1 [Compound 2, (−)-cis-8,9-Dimethoxy-6-quinolin-6-yl-1,2,3,4,4a,10b-hexahydrophenanthridine] | 7.23 |
| COc1cc2c(cc1OC)[C@@H]1CCCC[C@@H]1N=C2c1ccc2ccccc2c1 [Compound 5, (−)-cis-8,9-Dimethoxy-6-naphthalen-2-yl-1,2,3,4,4a,10b-hexahydrophenanthridine] | 7.63 |
| COc1cc2c(cc1OC)[C@@H]1CCCC[C@@H]1N=C2c1ccc2c(c1)S(=O)(=O)c1ccccc1C2=O [Compound 6, (−)-cis-8,9-Dimethoxy-6-(10,10-dioxothioxanthen-9-on-3-yl)-1,2,3,4,4a,10b-hexahydro-phenanthridine] | 8.39 |
| COc1cc2c(cc1OC)[C@@H]1CCCC[C@@H]1N=C2c1ccc2c(c1)OCO2 [Compound 1, (−)-cis-6-Benzo[1,3]dioxol-5-yl-8,9-dimethoxy-1,2,3,4,4a,10b-hexahydrophenanthridine] | 7.28 |
| COc1cc2c(cc1OC)[C@@H]1CCCC[C@@H]1N=C2c1ccc2c(c1)C(=O)c1ccccc1-2.Cl [Compound 7, (+)-cis-8,9-Dimethoxy-6-(fluoren-9-on-2-yl)-1,2,3,4,4a,10b-hexahydrophenanthridine hydrochloride] | 7.85 |
| COc1cc2c(cc1OC)[C@@H]1CCCC[C@@H]1N=C2c1ccc2[nH]cnc2c1 [Compound 9, (−)-cis-6-(1H-Benzimidazol-5-yl)-8,9-dimethoxy-1,2,3,4,4a,10b-hexahydrophenanthridine] | 6.76 |
| COc1cc2c(cc1OC)[C@@H]1CCCC[C@@H]1N=C2c1ccc(OC(F)F)c2oc(C(C)C)cc12 [Compound 11, (−)-cis-6-[7-Difluoromethoxy-2-isopropylbenzofuran-4-yl]-8,9-dimethoxy-1,2,3,4,4a,10b-hexahydrophenanthridine] | 8.00 |
| COc1cc2c(cc1OC)[C@@H]1CCCC[C@@H]1N=C2c1ccc2nc(C)[nH]c2c1 [Compound 10, (−)-cis-8,9-Dimethoxy-6-(2-methyl-3H-benzimidazol-5-yl)-1,2,3,4,4a,10b-hexahydrophenanthridine] | 6.83 |
| COc1cc2c(cc1OC)[C@@H]1CCCC[C@@H]1N=C2c1ccc2[nH]nnc2c1 [Compound 4, (−)-cis-6-(1H-Benzotriazol-5-yl)-8,9-dimethoxy-1,2,3,4,4a,10b-hexahydrophenanthridine] | 7.47 |
| COc1cc2c(cc1OC)[C@@H]1CCCC[C@@H]1N=C2c1ccc2c(c1)C(=O)c1ccccc1C2=O [Compound 8, (−)-cis-8,9-Dimethoxy-6-(anthraquinon-2-yl)-1,2,3,4,4a,10b-hexahydrophenanthridine] | 8.00 |
